Assays:
[1] = tested on: HLMVEC; test: Gaps formation between cells (ZO-1 immunofluorescence) in HLMVEC; type: cell-based, human; conditions: peptide 100 ng/ml, LPS 1 EU/ml
Method: HLMVEC were grown on gelatin-coated coverslips and exposed to LPS in the presence or absence of the NipR1 peptides. The cells were permeabilized and blocked for 1 h at 25° C. in 5% BSA blocking buffer. A primary antibody against ZO-1 (Invitrogen, 1:100 dilution) was added. Plates were incubated overnight at 4° C. then a secondary antibody (AlexaFluor) was added for 2 h. Slides were examined with Zeiss immunofluorescence microscope Axio Observer D1. The gaps between the cells were calculated using Zeiss Axio Observer software.

[2] = tested on: human lung microvascular endothelial cells (HLMVEC); test: Endothelial monolayer resistance (ECIS, TER) in LPS-challenged HLMVEC; type: cell-based; conditions: HLMVEC, peptide 100 ng/ml 30 min, then LPS 1 EU/ml
Method: The electrical resistance of the endothelial cell monolayer was measured with the electrical cell impedance sensor (ECIS) technique. In this system, the cells are cultured on gold plated electrodes. The change in resistance across the monolayer is measured through an amplifier attached to the arrays. Each study was performed when the resistance reached a plateau. The data was normalized to the initial voltage and plotted as a normalized resistance.
To examine if protein nitration by peroxynitrite is a contributing factor in endothelial barrier disruption in response to LPS, transendothelial resistance (TER) was measured in HLMVEC in the presence or absence of the peroxynitrite scavenger, MnTmPyp. HLMVEC were challenged with LPS (1 EU/ml) in the presence or absence of the peroxynitrite scavenger, MnTMPyP (25 μM).
To evaluate the role played by NOS in the barrier dysfunction, HLMVEC were exposed to LPS in the presence or absence of ETU (a non-specific NOS inhibitor) or 1400W (to inhibit iNOS). HLMVEC were challenged with LPS (1 EU/ml) in the presence or absence of the general NOS inhibitor, ETU (200 μM) or the iNOS specific inhibitor, 1400W (100 μM). The LPS-mediated decrease in TER was attenuated in the presence of ETU, but not 1400W (FIG. 1B). The important role of eNOS was then confirmed using a siRNA approach. HLMVEC were transiently transfected with a siRNA against eNOS or a scrambled control siRNA. After 48 h, there was a significant knockdown of eNOS protein levels (50%), as determined by Western blotting. Reducing eNOS protein levels preserved HLMVEC barrier function when challenged with LPS (FIG. 1C).

[3] = tested on: HLMVEC; test: Total protein nitration (3-NT/β-actin) in LPS-treated HLMVEC; type: cell-based, human; conditions: peptide 100 ng/ml 30 min, then LPS 1 EU/ml
From the text: Cell extracts were separated on 4-20% gels and electrophoretically transferred to PVDF membrane (Bio-Rad), then blocked with 5% nonfat dry milk in Tris-buffered saline. The membranes were probed with antibodies to RhoA (Cell Signaling), eNOS (BD), iNOS (Cell Signaling), or 3-Nitrotyrosine (Calbiochem). Reactive bands were visualized using chemi-luminescence (Pierce) on a Kodak 440CF image station. Band intensity was quantified using Kodak 1D image processing software. Protein loading was normalized by re-probing with mouse anti-β-actin.

[4] = tested on: LPS treated mice; test: Mouse model of ALI induced by intra-tracheal LPS: BALF, weight, histopathology, MPO, lung mechanics, cytokines; type: in vivo
Method: The Committee on Animal Research at Georgia Regents University approved all animal protocols and procedures. Stock solutions of Escherichia coli LPS (0111:B4) were prepared in saline. […] Mice were examined 24 h after LPS treatment. At the end of the treatment lungs were flushed with 3 ml of ice-cold PBS (5 mM EDTA), excised, dipped in saline and blotted dry. A portion of the lung was quickly snap-frozen in liquid nitrogen, crushed to powder in a pre-chilled mortar and stored at −80° C. The remaining lung tissue was stored at −80° C.
Isolation of Bronchoalveolar Lavage Fluid (BALF) BALF was obtained by instilling and withdrawing 1 mL of PBS via a tracheal cannula. Part of the solution was used to determine protein levels in the BALF. In addition, cells were pelleted at 2,500 g for 10 min and resuspended in water for 15 sec to lyse red blood cells. Leukocytes were resuspended in 1 ml PBS, and total cell count determined using a haemocytometer.
Mice were anesthetized with pentobarbital (90 mg/kg, i.p.), tracheostomized with a metal 1.2 mm (internal diameter) cannula and connected to a Flexi Vent (Scireq Inc) ventilator. Ventilation was initiated at a tidal volume of 10 ml/kg and a rate of 150/min. A TLC maneuver was performed, followed by 15 sec later, by a sinusoidal 1 Hz oscillation. Subsequently, an 8 sec forced oscillatory signal (0.5-19.6 Hz) was applied, the mechanical input impedance of the respiratory system was calculated, and a model containing a constant phase tissue compartment was fit to input impedance in order to evaluate tissue elastance. Dynamic pressure-volume maneuvers were performed by step-wise increasing the airway pressure to 30 cm H2O and then reversing the process.
Lungs were inflated with 10% formalin under 15 cm H2O pressure and immersed in the same solution before tissue processing into paraffin embedded blocks and 4 μm sections were then cut stained with H&E. Histopathological assessment was conducted by two researchers who were masked to treatment group. H&E stained sections were scored for the presence of neutrophil in the alveolar space, neutrophils in the interstitial space, the existence of hyaline membranes, proteinaceous debris filling the airspaces and alveolar septal thickening as described previously (Matute-Bello, et al., Am. J. Respir. Cell Mol. Biol. 44, 725-738 (2011)).
Sections (5 μm) were cut from paraffin blocks and mounted on treated slides (Superfrost+). Slides were air dried overnight, placed in a 60° C. oven for 30 min, deparaffinized in xylene and run through graded alcohol to distilled water. Endogenous peroxidase was quenched with 0.3% H2O2 for 5 min, followed by two rinses with distilled water. Slides were pretreated with Target pH 6, (Dako), rinsed in distilled water, incubated in Power Block (Biogenex), rinsed in distilled water, placed in PBS for 5 min, incubated with primary antimyeloperoxidase (Cappel, 1:2000 dilution) for 30 min at 25° C. After two rinses in PBS, slides were incubated with a peroxidase-labeled polymer conjugated to goat anti-rabbit secondary IgG (Envision+, Dako) for 30 min and rinsed in PBS. Bound antibody was detected with the DAB+ substrate kit, (Dako). Hematoxylin was used as a counter-stain. MPO-stained slides were then evaluated by scoring (0-4) for the presence of neutrophils within the alveolar walls.
Analytes (pg/mL) were assessed with the MCYTOMAG70K assay (EMD Millipore) as previously described (Lucas, R., et al., Proc. Natl. Acad. Sci. USA 109, 2084-2089 (2012)).
Mice were used to perform additional physiological, biochemical and morphological studies to evaluate the efficacy of the NipR1 peptide in attenuating symptoms of ALI. […] After 24 h, mice were anesthetized and BALF was collected. Measurements of lung mechanics were also carried out.

[5] = target: T1, RhoA (Mus musculus, UniProt Q9QUI0); test: RhoA activity, nitration and protein in lungs of LPS treated mice; type: in vivo
T1 construct: from tissue; host or cells: mouse lung (male C57Bl/6)
Method: The Committee on Animal Research at Georgia Regents University approved all animal protocols and procedures. Stock solutions of Escherichia coli LPS (0111:B4) were prepared in saline. […] Mice were examined 24 h after LPS treatment. At the end of the treatment lungs were flushed with 3 ml of ice-cold PBS (5 mM EDTA), excised, dipped in saline and blotted dry. A portion of the lung was quickly snap-frozen in liquid nitrogen, crushed to powder in a pre-chilled mortar and stored at -80° C. The remaining lung tissue was stored at -80° C. […] After 24 h, mice were sacrificed and lung tissue was obtained to determine RhoA activity and RhoA nitration, LPS induced RhoA activation in the mouse lung as in HLMVEC (FIG. 7A). […] Total RhoA protein levels and basal RhoA nitration were measured. […] Likewise, basal RhoA nitration levels (FIG. 7D) were unchanged.

[6] = target: T2, RhoA (Homo sapiens, UniProt P61586, Y34F); test: Stopped-flow kinetic analysis of mant-GDP/mant-GTP binding to RhoA; conditions: stop-flow analysis, purified Y34F RhoA
T2 construct: polyHis (6His); made in house; host or cells: Escherichia coli BL21
Method: RhoA was treated with authentic peroxynitrite (500 μM, 30 min) to induce tyrosine nitration in buffered solution. For kinetic analyses, 2 μM of either mart-GTP or -GDP was mixed with RhoA (0.1 μM) in a stopped-flow instrument (SX-20, […]). Increases in fluorescent intensity mant-nucleotide binding to RhoA were then measured using excitation 350 nm and cutoff filter 395 nm for 0.2-1 second. Acquired kinetic curves for 3-5 experiments were averaged and fitted using the Pro-kineticist software to determine observed binding constants.
To test the validity of the MD data kinetic studies were performed. His-tagged human RhoA construct was expressed in the Escherichia con BL21 strain. First, the bacterial lysate was purified by 6His-tag affinity on a Ni-NTA column. Second, the proteins in the elution fraction from the affinity purification were separated by size-exclusion chromatography (FIG. 11). The fraction containing RhoA was identified both by Coomassie blue staining and Western blot analysis. The recombinant purified RhoA was subjected to rapid flow kinetics to evaluate GDP and GTP binding using fluorescently labeled guanine nucleotides. Peroxynitrite decreases GDP binding to purified RhoA. Human recombinant RhoA was exposed to authentic peroxynitrite (100 μM, 30 min) on ice. […]

[7] = peptide i.p. 0.1 mg/kg 6 h prior to i.t. LPS 2 mg/kg, 24 h

T1 sequence (Q9QUI0 whole entry): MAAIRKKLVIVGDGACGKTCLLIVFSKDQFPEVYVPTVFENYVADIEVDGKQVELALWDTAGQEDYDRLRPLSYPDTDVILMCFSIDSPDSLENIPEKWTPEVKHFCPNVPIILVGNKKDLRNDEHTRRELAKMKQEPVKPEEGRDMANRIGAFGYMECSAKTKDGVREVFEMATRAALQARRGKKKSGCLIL
T2 sequence (P61586 whole entry Y34F): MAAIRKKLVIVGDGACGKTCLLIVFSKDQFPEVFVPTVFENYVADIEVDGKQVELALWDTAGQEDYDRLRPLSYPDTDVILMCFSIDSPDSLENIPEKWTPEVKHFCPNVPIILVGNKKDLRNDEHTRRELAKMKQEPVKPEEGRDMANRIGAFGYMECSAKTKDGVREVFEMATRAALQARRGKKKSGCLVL

Substance | Cell-cell gaps after LPS [1] | Attenuation of LPS-mediated disruption of the HLMVEC barrier (preservation of TER) [2] | Increase in total protein nitration induced by LPS [3] | LPS-mediated induction of multiple pro-inflammatory cytokines and chemokines in BALF ([4]; LPS + NipR1 vs LPS, MCYTOMAG-70K assay) | Attenuation of LPS induced increase in MPO staining in the alveolar space [4, 7] | Attenuation of LPS-induced increase in total white blood cell counts in BALF [4, 7] | MPO activity in lung homogenates after LPS [4, 7] | Prevention of LPS-induced reduction in lung elastance (dynamic pressure-volume relationships) [4, 7] | Prevention of weight loss associated with LPS exposure [4, 7] | Reduction of LPS-induced histopathological changes in the lungs (H&E) [4, 7] | Inflammatory response induced by LPS ([4]; peptide i.p. prior to i.t. LPS) | Basal RhoA nitration levels in mouse lung ([5]; peptide alone, no LPS) | Attenuation of LPS-mediated increase in RhoA activity in the mouse lung [5, 7] | Attenuation of LPS-mediated increase in RhoA nitration in the mouse lung [5, 7] | Total RhoA protein levels in mouse lung ([5]; peptide i.p. 0.1 mg/kg, with or without LPS) | Binding of GTP (mant-GTP) to RhoA mutant [6]
HRKKRRQRRRQFPVYVPTVF (SEQ ID NO:25) (Human immunodeficiency virus) [NipR1] | reduction | attenuated | unaffected | attenuated | attenuated | attenuated | attenuated | prevented | able to prevent | reduced | reduced | unchanged | attenuated | attenuated | Neither peptide nor LPS treatment altered | 
Y34FRhoA: purified RhoA mutant protein in which the tyrosine residue (Y) was replaced by phenylalanine |  |  |  |  |  |  |  |  |  |  |  |  |  |  |  | No binding
